Key:
in vitro = settings: PAMPA
[1] = in vivo, po; cited from earlier work
[2] = pH 5, permeability class PAMPA-GIT

Compound `Cc1cc(=O)n(-c2ccccc2)n1C` [Antipyrine] has a Papp (in vitro; [2]) of less than 1 ×10⁻⁶ cm/s.
`NC(=O)N1c2ccccc2C=Cc2ccccc21` [Carbamazepine] gave a Papp (in vitro; pH 5, Papp PAMPA-GIT, pH 5.0) of 135 ×10⁻⁶ cm/s, a Papp (in vitro; [2]) greater than 20 ×10⁻⁶ cm/s and a Papp (in vitro; pH 6.2, Papp PAMPA-GIT, pH 6.2) of 158 ×10⁻⁶ cm/s. The Papp (in vitro; pH 7.4, Papp PAMPA-GIT, pH 7.4) was 160 ×10⁻⁶ cm/s.
For `CC(C)(C)[C@H](NC(=O)C(F)(F)F)C(=O)N1C[C@H]2[C@@H]([C@H]1C(=O)N[C@H](C#N)C[C@@H]1CCNC1=O)C2(C)C` [nirmatrelvir], the half-life [1] is listed as ~ 2 h.
